Several values for one entry are separate records, joined by “and”; a condition that tells them apart may be missing. Identical values can stand only once. Counter-ions that a name gives are not always drawn.

For this assay, the target named is 5-hydroxytryptamine receptor 4 (Cavia porcellus, UniProt O70528).
5-hydroxytryptamine receptor 4, sequence (O70528 whole entry): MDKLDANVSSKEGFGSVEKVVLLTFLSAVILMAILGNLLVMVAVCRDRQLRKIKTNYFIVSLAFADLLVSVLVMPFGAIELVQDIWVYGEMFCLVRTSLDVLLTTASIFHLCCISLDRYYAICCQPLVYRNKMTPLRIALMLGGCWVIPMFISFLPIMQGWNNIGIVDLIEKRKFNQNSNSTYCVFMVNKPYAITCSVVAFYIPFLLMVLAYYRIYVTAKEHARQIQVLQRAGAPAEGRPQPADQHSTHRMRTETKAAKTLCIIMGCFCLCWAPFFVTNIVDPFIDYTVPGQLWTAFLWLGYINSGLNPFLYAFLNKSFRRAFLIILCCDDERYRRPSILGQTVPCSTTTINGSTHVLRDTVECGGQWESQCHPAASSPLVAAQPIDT
As a reminder, the Ki is a measure of affinity in units of concentration, obtained from inhibition or displacement. Lower therefore signals tighter binding. Regarding `CN1C2CCC1CC(OC(=O)c1c[nH]c3ccccc13)C2` (configuration not stated), the Ki was 0.0631 µM. The same measure for `CCN(CC)CCNC(=O)c1cc(Cl)c(N)cc1OC` [4-amino-5-chloro-N-[2-(diethylamino)ethyl]-2-methoxy-benzamide;hydrochloride]: 0.631 µM and 0.501 µM. The same measure for `Cn1cc(CCN)c2cc(O)ccc21` [5-HT,omega-N-Me]: 1.58 µM; for `CCn1c(=O)n(C(=O)NC2CC3CCC(C2)N3C)c2ccccc21` (configuration not stated) [BIMU 1]: 0.0158 µM. For `CC(C)n1c(=O)n(C(=O)NC2C[C@H]3CC[C@@H](C2)N3C)c2ccccc21` (some centres not stated) [BIMU 8] the value was 0.0251 µM and 0.0126 µM. Consider `Cn1cc(C(=O)OCC2CCN(CCNS(C)(=O)=O)CC2)c2ccccc21` [GR 113808], for which the Ki is 0.00025 µM and 0.00031 µM. The same measure for `COc1cc(N)c(Cl)cc1C(=O)NC1CCN2CCCC1C2` (configuration not stated) [NSC_3035240]: 0.126 µM and 0.1 µM. The same measure for `CCN(CC)CCOC(=O)c1cc(Cl)c(N)cc1OC` [SDZ-205557]: 0.00794 µM and 0.0063 µM; for `COc1cc(N)c(Cl)cc1C(=O)NC1CN2CCC1CC2` (configuration not stated) [ZACOPRIDE,R]: 0.2 µM and 0.158 µM and 0.251 µM.

Regarding `COc1cc(N)c(Cl)cc1C(=O)N[C@@H]1CN2CCC1CC2` [ZACOPRIDE,R], the Ki was 1 µM and 0.501 µM. The same measure for `NCCc1c[nH]c2ccc(C(N)=O)cc12` [[3H]-5-carboxamidotryptamine]: 6.31 µM; for `COc1ccc2[nH]cc(CCN)c2c1` [tryptamine, 5-Methoxy]: 0.631 µM and 0.316 µM.

The record behind these values is BindingDB's records for doi:10.1111/j.1476-5381.1993.tb13617.x (Glaxo Group Research, 1993).
